# Results published in US10251865B2, “Method of activating regulatory T cells with alpha-2B adrenergic receptor agonists” (Allergan, Inc., priority 2010, dated 2019).
# How the values were obtained:
# [1] = test system: CD4+/CD25+ Treg cells; test: Treg cell frequency in lymphatic organs of SNL rats (flow cytometry); assay type: in vivo; conditions: SNL Rat Model of Allodynic Neuropathic Pain, FIG. 2
# Experimental: The SNL (or Chung) Model in the rat is an accepted standard animal model of neuropathic pain and is thought to mimic the human causalgia condition with respect to symptoms (guarding behavior, mechanical allodynia) and alleviation by pharmacological agents. […] The SNL Model is performed by tightly ligating the L-5 and L-6 spinal nerves, which produces tactile allodynia or sensitivity to light touch as described (Kim and Chung, 1992). Male sprague-dawley rats (100-120 grams; Charles River, Wilmington, Mass.) were anesthetized through inhalation of an isoflurane/oxygen mix. The surgical site was shaved and prepared with betadine. An incision was made from the thoracic vertebra XIII toward down the sacrum. The muscle was separated from the spinal vertebra (left side) at the L4-S2 levels. […]
# To determine surface expression of CD4 (Helper T cells), CD8 (killer T cells), CD25 (activated helper T cells and regulatory T cells), CD45 (macrophage and microglial cells) and F4/80 (macrophage and microglial cells) 5×10^5 cells/100 μL FACS buffer (PBS, 0.02% sodium azide [Sigma-Aldrich] and 2% bovine serum albumin) were incubated with appropriate antibodies from BD biosciences, Mountain View, Calif. […] Expression was analyzed (FACSCalibur with CellQuest software; BD Biosciences, Mountain View, Calif.).
# [2] = test system: EAAU rats; test: Experimental autoimmune anterior uveitis (EAAU) in rats; assay type: in vivo, rat
# Experimental: Male Lewis rats (180-200 g) were immunized by a single left hind-footpad injection with 150, μg (in 100 μL) of purified MAA complex from bovine eye. MAA proteins were suspended in phosphate-buffered saline (PBS, pH7.2) and emulsified (1:1 v/v) in complete Freund's adjuvant (CFA, VWR Scientific) containing 1 μg/100 μl of Pertussis Toxin (PTx) emulsion mixture. Control animals were injected with PBS emulsified with CFA and PTx.
# Assessment of intraocular inflammation was conducted starting day 7 after immunization, Animals were examined every other day between day 7 and 19 post-immunization for clinical signs and symptoms of uveitis using slit lamp microscopy. Aqueous humor was collected to evaluate the number of inflammatory cells and protein levels. Cell counts were done with 10 ul with a hemocytometer under the light microscope. Protein concentration was measured with a Protein assay solution from Bio-Rad, using BSA as the protein standard. Pro-inflammatory cytokine and chemokine levels were measured on Luminex (Biosource-Invitrogen, Carlsbad, Calif.). Blood, spleen, and eyes were harvested on days 11, 14, and 19 to determine blood leukocyte differentiation, splenic T cell activation status via Flow cytometry, as well as histopathology.
# [3] = test system: EIU rats; test: Endotoxin-induced uveitis (EIU) in rats; assay type: in vivo, rat
# Experimental: Female Lewis rats (180-200 grams) were purchased from Charles River Laboratory. Rats were footpad-injected (hind left side) with either 100 μl of 1 mg/ml LPS (Sigma) solution (in sterile pyrogen-free saline) or 150 μl of sterile pyrogen-free saline. Animals were sacrificed at 24 hours following LPS injection. Aqueous humor was collected and analyzed to determine inflammatory cell counts, levels of cytokines and chemokine concentration as well as total protein concentrations. Blood leukocyte differentiation and histopathology were also determined if required.
smiles,measurement,setting,value
CCC1=CC(Cc2c[nH]cn2)CCC1 (stereo not shown) [Compound B],frequency of spleen CD4+ T cells that are CD4+/CD25+ Treg cells,[1],Sustained increase
same,anterior inflammation,[2]; 1 mg/kg/day from days 1-18 or days 7-18 following EAAU induction (3 days oral TID then osmotic minipump),effective in partially abrogating
same,CD4+ T cell population in the spleen,[2]; EAAU rats,normalized
same,lymphocyte populations in the blood,[2]; EAAU rats,normalized
same,neutrophil cell counts in the blood,[2]; EAAU rats,decreased
same,clinical scores of anterior uveitis,"[2]; EAAU rats, FIG. 8",decreased
same,inflammatory cell numbers in the aqueous humor,"[2]; EAAU rats, FIG. 8",decreased
same,protein exudation in the aqueous humor,"[3]; 1 mg/kg/day by osmotic minipump, vs untreated or vehicle-treated (saline) controls, FIG. 9",significantly inhibited
same,decrease on blood lymphocyte populations as a result of LPS stimulation,[3]; FIG. 10,significantly normalized
same,increase in blood neutrophils as a result of LPS stimulation,[3]; FIG. 10,significantly normalized
